Test results from patent publication US9358276B2, “Methods of diagnosing and treating small intestinal bacterial overgrowth (SIBO) and SIBO-related conditions” (Cedars-Sinai Medical Center, priority 1999, dated 2016).

Experiments:
Assay type in all cases: in vivo, human
upper gut transit = experiment: Upper gut transit time by lactulose breath hydrogen test after oleate or oleic acid; details: five patients with persistent diarrhea
Description: In a preliminary study, five patients with persistent diarrhea for 3 to 22 months, (one each due to vagal denervation, ileal resection for Crohn's disease, and vagotomy and antrectomy, and two due to idiopathic causes) were studied. […] This test relies on the metabolism of certain carbohydrate materials (e.g. lactulose) by the microbial flora within the caecum. By generating gas which can be detected in the expired air, it is possible to make some estimation about the initial arrival of the administered material within the colon.
Each patient received orally in random order, 0, 1.6 or 3.2 g of sodium oleate in 25 mL Ensure (Ross), followed by 100 mL water. Thirty minutes after each dose of oleate, patients received 10 g lactulose orally, followed by 25 mL water. Breath samples were collected in commercially available breath testing bags (Quintron, Menomonee Falls, Wis.) every 10-15 minutes, and the hydrogen content of the samples was measured using a breath analyzer (Microlyzer Model 12, Quintron Instruments, Menomonee Falls, Wis.), calibrated against gas samples of known hydrogen concentration. With a syringe, a 40-mL sample of the expired breath was withdrawn from the collection bag and analyzed immediately for hydrogen concentration (ppm). The hydrogen concentration value from each sample was plotted against time. Upper gut transit time was defined as the time in minutes from ingestion of lactulose (t0) until a rise of H2 of >10 ppm. Data were further analyzed using 1-way repeated measures analysis of variance (ANOVA)(See Table 4).
The effect of an active lipid on transit time was determined in 8 normal human subjects (1 male and 7 females with a mean age of 35±2.6 years [SE]) and 45 patients (20 males and 25 females with a mean age of 49.1±2.5 [SE], age range from 18 to 90 years) with chronic diarrhea (i.e., continuous diarrhea for more than two months) associated with a wide variety of diagnoses and conditions (e.g., Crohn's disease; irritable bowel syndrome; short bowel syndrome; Indiana pouch; AIDS; ulcerative colitis; vagotomy; antrectomy; ileostomy; partial and complete colectomy; colon cancer; diabetes mellitus type 1; pancreatic insufficiency; radiation enteropathy; esophagectomy/gastric pull-up; total and subtotal gastrectomy; gastrojejunostomy), made by referring gastroenterologists. The method was the same as described above, except oleic acid (Penta Manufacturing, Livingston, N.J.) replaced sodium oleate in 50 mL of Ensure emulsion. All subjects refrained from taking antibiotics for at least two weeks before each testing date and during stool measurement periods. Patients were also instructed to refrain from anti-diarrheal drugs, laxatives, somatostatin analogues or anticholinergics for at least 48 hours before each test. In both the normal and patient groups, there was a significant slowing of upper gut transit time in response to oleic acid, as summarized in Table 5 below (p<0.001).

[1] = tested on: rapid upper gut transit and diarrhea; experiment: Continued pre-meal oleate/oleic acid treatment: diarrhea, stool output, symptoms
Description: Continuing oleic acid treatment at home was offered to Aresponders≅ (i.e., patients who experienced a greater than 100% increase in baseline transit time with 3.2 g oleic acid). Of the 36 responders out of the original 45 patients, 18 provided records of stool volume and frequency on- and off-treatment for comparison. The inconvenient and unappealing nature of stool collection and measurement were the primary reasons reported by responders who chose not to participate in stool collection. After completing a set of three preliminary breath hydrogen tests, each participating responder was asked to refrain from taking oleic acid for two days in order to measure off-treatment stool output for a 24-hour period. Patients were issued a stool pattern record form and a stool collection container with graduated volume markings to record the frequency and volume of bowel movements. After two days without oleic acid, each patient took 3.2 g of oleic acid mixed with 25 mL of Ensure emulsion three times a day, 30 minutes before breakfast, lunch and dinner. After taking oleic acid for two days, patients recorded stool output for another 24-hour period. With this oleic acid emulsion treatment, stool frequency decreased from 6.9±0.8 to 5.4±0.9 bowel movements per 24-hour period (p<0.05), and stool volume decreased from 1829.0±368.6 to 1322.5±256.9 per 24-hour period (p<0.05).
The patient was a person with a history of adolescent-onset, persistent diarrhea. […] They presented with complaints of excessive gas, postprandial bloating, diarrhea and urgency, and 3 to 7 liquid bowel movements per day. Their upper gut transit times were (min) 30 (0 g oleic acid), 117 (1.6 g oleic acid) and 101 (3.2 g oleic acid).

SIBO [2] = experiment: Neomycin/antibiotic treatment of subjects with fibromyalgia and SIBO
Description: Of these 37, 28 tested positive for SIBO.
These ten subjects reported a 63±19% overall improvement in their symptoms by VAS scoring. FIG. 3 compares the VAS scores for various symptoms reported by the subjects with a suspected diagnosis of fibromyalgia before and after neomycin treatment. Symptoms included bloating, gas, diarrhea, joint pain and fatigue to treatment. Subjects were asked to identify the symptom most improved. Five subjects reported that pain was the most improved; three subjects reported that the level of fatigue was most improved, and two others reported that their abdominal complaints improved the most. There was a negative correlation between the degree of improvement in the VAS scoring and the amount of residual hydrogen peak seen in LBHT. (Pearson=−0.689, p=0.02; FIG. 4).
Subsequently, forty-six human subjects with FM (ACR criteria) entered a double blind randomized placebo controlled trial. Each subject underwent LBHT, a tender point examination and completed a questionnaire at the initial (baseline) and at every subsequent visit. Subjects were randomized to receive neomycin (500 mg twice daily in liquid form) or a matched placebo, for 10 days. After completion of this treatment, subjects with persistent SIBO received antibiotics (open label) until at least partially eradication was confirmed by LBHT. […] Six out of 20 patients (30%) in the neomycin group achieved complete […] eradication in the blinded arm. […] (Initial data in Table 1a).

SIBO [3] = experiment: Neomycin treatment of SLE subjects with SIBO
Method: Fifteen of the 202 (7.4%) subjects in the database had been diagnosed with SLE. Of these 15 subjects, 13 (87%) had bacterial overgrowth, as indicated by LBHT. Four of the 15 subjects with SLE returned for follow-up LBHT and questionnaire after treatment with neomycin (500 mg twice daily for 10 days). […] (Table 3).

SIBO [4] = experiment: Case: impaired memory/mentation with SIBO, neomycin; details: one patient
Description: The patient was a person with a history of chronic intestinal complaints over several years. They experienced altered bowel habits with alternating diarrhea and constipation with bloating, gas, distension and abdominal pain. Also, they had been diagnosed by several psychiatrists as having psychiatric problems due to decreased mentation from mild senility, and they contemplated psychiatric hospitalization.
SIBO was detected in this patient by LBHT.

Compound	Transit time (mean ± SE) (upper gut transit; 1.6 g sodium oleate in 25 mL Ensure) [min]	Transit time (mean ± SE) (upper gut transit; 3.2 g sodium oleate in 25 mL Ensure) [min]	diarrhea ([1]; all five patients, prolonged ingestion 15-30 minutes prior to meals)	chronic abdominal pain, post prandial bloating and nausea ([1]; patient with Crohn's disease)	weight gained ([1]; patient with Crohn's disease) [lbs]	postprandial dumping syndrome ([1]; patient with vagotomy and antrectomy)	patients achieving complete eradication of SIBO in the blinded arm (SIBO [2]; six out of 20, 500 mg twice daily liquid, 10 days) [%]	eradication of SIBO (post-treatment LBHT) (SIBO [2]; ten fibromyalgia subjects)	overall improvement in symptoms by VAS scoring (SIBO [2]; ten fibromyalgia subjects, 500 mg twice daily, 10-day course) [%]	VAS score Fatigue, After Antibiotic (SIBO [3]; four SLE patients)	VAS score Gas, After Antibiotic (SIBO [3]; four SLE patients)	VAS score Joint Pains, After Antibiotic (SIBO [3]; four SLE patients)	VAS score Bloating, After Antibiotic (SIBO [3]; four SLE patients, neomycin 500 mg twice daily for 10 days)	LBHT result after treatment (SIBO [3]; four SLE subjects)	quality of life (SIBO [4])	eradication of SIBO condition (SIBO [4]; 500 mg twice a day for ten days)
CCCCCCCC/C=C\CCCCCCCC(=O)[O-].[Na+] [oleate, sodium oleate]	116 ± 11.1	140 ± 11.5	reduced diarrhea	complete resolution	22	resolution of postprandial dumping syndrome										
neomycin							30	at least partially eradicated	63±19	3.5 ± 1.4	1.9 ± 1.7	0.5 ± 0.6	1.3 ± 1.3	negative for SIBO	dramatic improvement	completely eradicated
